From patent publication US5332736A, “Anti-convulsant aroyl aminoacylpyrroles” (Ortho Pharmaceutical Corporation, priority 1993, dated 1994)

System: toxic extensor seizure
Experiment: maximal electroshock test (MES), mouse; block of the toxic extensor seizure (Swinyard 1952 method)
Type: in vivo
Conditions: ip
Source text: The compound of formula (I) are useful as anticonvulsant agents. The anticonvulsant activity of the subject compounds was determine using a standard "maximal electroshock test" (MES). In this test, activity is indicated by a block of the toxic extensor seizure, as described by Swinyard et al in J. Pharmacol,. Exptl. Therap. 106, 319 (1952). A more recent description of current anticonvulsant drug screening is given in Swinyard et al., in Epilepsia 19, 409 (1978).

Point of comparison: CCN(CC)CC(=O)c1cc(C(=O)c2ccc(Cl)cc2)n(C)c1 [Example 9-4], ED50 14.4 mg/kg. Against it:
- Cn1cc(C(=O)CN2CCCCC2)cc1C(=O)c1ccc(Cl)cc1 [Example 9-1] — 1.7-fold higher, 24.4 mg/kg
- Cc1c(C(=O)CN2CCOCC2)c(C)n(C)c1C(=O)c1ccc(Cl)cc1 [Example 9-2] — 6.1-fold higher, 87.6 mg/kg
- Cc1c(C(=O)CN2CCCC2)c(C)n(C)c1C(=O)c1ccc(Cl)cc1 [Example 9-5] — within 1.5-fold, 15.2 mg/kg
- Cn1cc(C(=O)CN2CCCCC2)cc1C(=O)c1ccccc1Cl [Example 9-10] — 2.7-fold lower, 5.38 mg/kg
- Cn1cc(C(=O)CN2CCCCCC2)cc1C(=O)c1ccc(Cl)cc1 [Example 9-11] — 1.9-fold higher, 27.5 mg/kg
- Cn1cc(C(=O)CN2CCCC2)cc1C(=O)c1cccc(Cl)c1 [Example 9-24] — within 1.5-fold, 16.5 mg/kg
- Cn1cc(C(=O)CN2CCOCC2)cc1C(=O)c1cccc(Cl)c1 [Example 9-25] — 2.6-fold higher, 37.4 mg/kg
- O=C(CN1CCOCC1)c1c[nH]c(C(=O)c2ccc(Cl)cc2)c1 [Example 9-27] — 6-fold higher, 86.2 mg/kg
- CCN(CC)CC(=O)c1cc(C(=O)c2ccc(OC)cc2)n(C)c1 [Example 9-29] — 2.3-fold higher, 33 mg/kg
- Cn1cc(C(=O)CN2CCCC2)cc1C(=O)c1ccc(Cl)cc1 [Example 9-30] — 3.4-fold higher, 49.1 mg/kg
- CCN(CC)CC(=O)c1c(C)c(C(=O)c2ccc(Cl)cc2)n(C)c1C [Example 9-32] — within 1.5-fold, 10.3 mg/kg
- CCN(CC)CC(=O)c1c(C)c(C(=O)c2ccc(Cl)cc2Cl)n(C)c1C [Example 9-34] — within 1.5-fold, 14.9 mg/kg
